Laboratory results: patent US11426448B2, “Methods for treatment of erectile dysfunction with sonic hedgehog compounds” (NORTHWESTERN UNIVERSITY, priority 2018, dated 2022)

Tested on: MPG/CN neurons
Experiment: MPG/CN organ culture with Affi-Gel beads, quantification of neurites
Assay type: cell-based, Sprague Dawley rats
Conditions: uninjured MPG/CN, three days, SHH inhibitors on Affi-Gel beads, vs DMSO or PBS

Q: Which neurite formation reduced does the source give for CC1=C2C[C@H]3[C@@H](CC=C4C[C@@H](O)CC[C@@]43C)[C@@H]2CC[C@]12O[C@@H]1C[C@H](C)CN[C@H]1[C@H]2C [cyclopamine] here?
A: The neurite formation reduced was 5.6 fold.

Q: What about the “neurite formation reduced / inhibited” value of the same compound?
A: Its value is 82%.
